# Test results reported in ChEMBL document CHEMBL1121645, “Pyrimidine acyclic nucleosides, 1-[(2-Hydroxyethoxy)methyl]pyrimidines as candidate antivirals” (J Med Chem, 1981).
# Key:
# [1] = tested on: Thymidine kinase (Human alphaherpesvirus 1); assay: Compound was evaluated for the inhibitory activity against HSV-1 encoded thymidine kinase at 300 uM
# [2] = tested on: Thymidine kinase (Human alphaherpesvirus 1); assay: Compound was evaluated for the inhibitory activity against HSV-1 encoded thymidine kinase at 300 uM; 45-56% inhibition
SMILES,inhibition [1] [%],inhibition [2] [%]
O=c1[nH]c(=O)n(COCCO)cc1C(F)(F)F,56,
O=C(OCCOCn1ccc(=O)[nH]c1=O)c1ccccc1,,45
O=c1[nH]c(=O)n(COCCO)cc1I,56,
